The record followed here is patent US20130303509A1, “NAMPT INHIBITORS” (AbbVie Inc., priority 2012, published 2013).

This experiment deals with PC3 cells. Kind of experiment: NAMPT Cell Proliferation Assay. The class given is cell-based. The conditions noted are these: Homo sapiens, PC-3, 120 h, 5 days incubation, cell viability by Cell Titer Glo. An outline of the steps: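 Seeded at 500 cells/well in RPMI with 10% heat-inactivated FBS and left to attach overnight at 37° C, 5% CO2. Compounds were added as 10-fold dilutions […] for 5 days, then viability was read by CellTiter-Glo. IC50s came from sigmoidal fits of percent inhibition.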
Molecule `O=C(Nc1ccc(C2CCN(C(=O)c3ccccc3F)CC2)cc1F)C1CN(c2cccnn2)C1` [Example 828, N-{2-fluoro-4-[1-(2-fluorobenzoyl)piperidin-4-yl]phenyl}-1-(pyridazin-3-yl)azetidine-3-carboxamide] registered an IC50 of 0.826 nM. With `O=C(Nc1ccc(OC2CCN(C(=O)c3ccc(C(F)(F)F)cc3)CC2)cc1)C1CN(c2ccnnc2)C1` [Example 287, 1-(pyridazin-4-yl)-N-[4-({1-[4-(trifluoromethyl)benzoyl]piperidin-4-yl}oxy)phenyl]azetidine-3-carboxamide], the IC50 came out at 121 nM. Consider `O=C(Nc1ccc(C2CCN(C(=O)c3cccc(OC(F)(F)F)c3)CC2)cc1)C1CN(c2ccnnc2)C1` [Example 562, 1-(pyridazin-4-yl)-N-(4-{1-[3-(trifluoromethoxy)benzoyl]piperidin-4-yl}phenyl)azetidine-3-carboxamide], for which the IC50 came out at 9.45 nM. Next, `O=C(Nc1ccc(OC2CCN(C(=O)C3CCCO3)CC2)cc1)C1CN(c2ccnnc2)C1` (stereo not drawn) [Example 302, 1-(pyridazin-4-yl)-N-(4-{[1-(tetrahydrofuran-2-ylcarbonyl)piperidin-4-yl]oxy}phenyl)azetidine-3-carboxamide]: 82.4 nM; `O=C(Nc1ccc(OC2CCN(C(=O)c3cccc(F)c3)CC2)cc1)C1CN(c2cccnn2)C1` [Example 231, N-(4-{[1-(3-fluorobenzoyl)piperidin-4-yl]oxy}phenyl)-1-(pyridazin-3-yl)azetidine-3-carboxamide]: 8.75 nM. Next, `CCC(=O)N1CCC(c2ccc(NC(=O)C3CN(c4cccnc4C)C3)cc2)CC1` [Example 181, 1-(2-methylpyridin-3-yl)-N-[4-(1-propanoylpiperidin-4-yl)phenyl]azetidine-3-carboxamide]: 238 nM. Take `N#Cc1ccc(C(=O)N2CCC(c3ccc(NC(=O)C4CN(c5cccnn5)C4)cc3)CC2)cc1` [Example 353, N-{4-[1-(4-cyanobenzoyl)piperidin-4-yl]phenyl}-1-(pyridazin-3-yl)azetidine-3-carboxamide]: half-maximal inhibition (IC50) was put at 7.15 nM. `O=C(Nc1ccc(O[C@@H]2CCN(C(=O)Cc3ccccc3F)C2)cc1)C1CN(c2ccnnc2)C1` [Example 459, N-[4-({(3R)-1-[(2-fluorophenyl)acetyl]pyrrolidin-3-yl}oxy)phenyl]-1-(pyridazin-4-yl)azetidine-3-carboxamide] came in with an IC50 of 36.9 nM. For the molecule `O=C(Nc1ccc(C2CCN(C(=O)CN3CCCC3)CC2)cc1)C1CN(c2cccnc2)C1` [Example 105, 1-(pyridin-3-yl)-N-{4-[1-(pyrrolidin-1-ylacetyl)piperidin-4-yl]phenyl}azetidine-3-carboxamide], the IC50 worked out at 6.17 nM. Molecule `O=C(Nc1ccc(C2CCN(C(=O)c3cc(F)ccc3F)CC2)cc1)C1CN(c2cccnn2)C1` [Example 416, N-{4-[1-(2,5-difluorobenzoyl)piperidin-4-yl]phenyl}-1-(pyridazin-3-yl)azetidine-3-carboxamide] returned an IC50 of 1.12 nM. Regarding `O=C(Nc1ccc(C2CCN(C(=O)c3ccc(Cl)cc3Cl)CC2)cc1)C1CN(c2cccnn2)C1` [Example 362, N-{4-[1-(2,4-dichlorobenzoyl)piperidin-4-yl]phenyl}-1-(pyridazin-3-yl)azetidine-3-carboxamide], half-maximal inhibition (IC50) was put at 2.61 nM.

As for `O=C(NC1CN(c2cccnn2)C1)c1ccc(C2CCN(C(=O)CC(F)(F)F)CC2)s1` [Example 849, N-[1-(pyridazin-3-yl)azetidin-3-yl]-5-[1-(3,3,3-trifluoropropanoyl)piperidin-4-yl]thiophene-2-carboxamide], the IC50 came out at 685 nM. Next, `O=C(Nc1ccc(OC2CCN(C(=O)C3CCOCC3)CC2)cc1)C1CN(c2ccnnc2)C1` [Example 306, 1-(pyridazin-4-yl)-N-(4-{[1-(tetrahydro-2H-pyran-4-ylcarbonyl)piperidin-4-yl]oxy}phenyl)azetidine-3-carboxamide]: 34.7 nM; `Cc1ccc(N2CC[C@H](C(=O)Nc3ccc(OC4CCN(C(=O)c5ccccc5)CC4)cc3)C2)nn1` [Example 837, (3S)—N-{4-[(1-benzoylpiperidin-4-yl)oxy]phenyl}-1-(6-methylpyridazin-3-yl)pyrrolidine-3-carboxamide]: 769 nM; `CC(=O)C(=O)N1CCC(c2ccc(NC(=O)C3CN(c4cccnn4)C3)cc2)CC1` [Example 438, N-{4-[1-(2-oxopropanoyl)piperidin-4-yl]phenyl}-1-(pyridazin-3-yl)azetidine-3-carboxamide]: 1.96 nM. Turning to `CC(C)(C)OC(=O)N1CCC(Oc2ccc(NC(=O)[C@@H]3CCN(c4cccnc4)C3)cc2)CC1` [Example 9, tert-butyl 4-[4-({[(3R)-1-(pyridin-3-yl)pyrrolidin-3-yl]carbonyl}amino)phenoxy]piperidine-1-carboxylate], inhibition was half-maximal at 739 nM (IC50).

In the case of `Cc1ccc(N2CC(C(=O)Nc3ccc(C4CCN(C(=O)c5ccccc5)CC4)cc3)C2)nn1` [Example 667, N-[4-(1-benzoylpiperidin-4-yl)phenyl]-1-(6-methylpyridazin-3-yl)azetidine-3-carboxamide], half-maximal inhibition (IC50) was put at 12.5 nM. The figure for `COCCOCC(=O)N1CCC(Oc2ccc(NC(=O)C3CN(c4cccnc4)C3)cc2)CC1` [Example 48, N-[4-({1-[(2-methoxyethoxy)acetyl]piperidin-4-yl}oxy)phenyl]-1-(pyridin-3-yl)azetidine-3-carboxamide] is 2.88 nM; for `Cc1ccccc1C(=O)N1CCC(c2ccc(NC(=O)[C@H]3CCN(c4cccnn4)C3)cc2)CC1` [Example 652, (3S)-N-{4-[1-(2-methylbenzoyl)piperidin-4-yl]phenyl}-1-(pyridazin-3-yl)pyrrolidine-3-carboxamide] it is 6.14 nM. Turning to `O=C(Nc1ccc(O[C@@H]2CCN(C(=O)c3ccsc3)C2)cc1)C1CN(c2cccnn2)C1` [Example 490, 1-(pyridazin-3-yl)-N-(4-{[(3R)-1-(thiophen-3-ylcarbonyl)pyrrolidin-3-yl]oxy}phenyl)azetidine-3-carboxamide], the IC50 came to 0.68 nM. In turn, `O=C(NC1CN(c2cccnn2)C1)c1ccc(C2CCN(C(=O)c3ccccc3F)CC2)s1` [Example 811, 5-[1-(2-fluorobenzoyl)piperidin-4-yl]-N-[1-(pyridazin-3-yl)azetidin-3-yl]thiophene-2-carboxamide] gave an IC50 of 11 nM. `O=C(Nc1ccc(OC2CCN(C(=O)Cc3cccc(F)c3)CC2)cc1)C1CN(c2cccnn2)C1` [Example 227, N-[4-({1-[(3-fluorophenyl)acetyl]piperidin-4-yl}oxy)phenyl]-1-(pyridazin-3-yl)azetidine-3-carboxamide] gave an IC50 of 4.53 nM. `O=C(Nc1ccc(C2CCN(C(=O)CC(F)(F)F)CC2)cc1)C1CN(c2cccnn2)C1` [Example 332, 1-(pyridazin-3-yl)-N-{4-[1-(3,3,3-trifluoropropanoyl)piperidin-4-yl]phenyl}azetidine-3-carboxamide] had an IC50 of 0.99 nM. Turning to `O=C(Nc1ccc(S(=O)(=O)C2CCN(C(=O)c3ccccc3F)CC2)cc1)C1CN(c2cccnn2)C1` [Example 577, N-(4-{[1-(2-fluorobenzoyl)piperidin-4-yl]sulfonyl}phenyl)-1-(pyridazin-3-yl)azetidine-3-carboxamide], half-maximal inhibition (IC50) was put at 93 nM. Next, `CC1(C(=O)N2CCC(Oc3ccc(NC(=O)C4CN(c5cccnc5)C4)cc3)CC2)CC1` [Example 66, N-[4-({1-[(1-methylcyclopropyl)carbonyl]piperidin-4-yl}oxy)phenyl]-1-(pyridin-3-yl)azetidine-3-carboxamide]: 5.81 nM; `O=C(Nc1ccc(OC2CCN(CC3CC3)CC2)cc1)C1CN(c2cccnc2)C1` [Example 74, N-(4-{[1-(cyclopropylmethyl)piperidin-4-yl]oxy}phenyl)-1-(pyridin-3-yl)azetidine-3-carboxamide]: 11.4 nM; `Cc1ncccc1N1CC(C(=O)Nc2ccc(C3CCN(C(=O)c4cccnn4)CC3)cc2)C1` [Example 158, 1-(2-methylpyridin-3-yl)-N-{4-[1-(pyridazin-3-ylcarbonyl)piperidin-4-yl]phenyl}azetidine-3-carboxamide]: 1300 nM. Turning to `CC(C)(C)C(=O)N1CCC(c2ccc(NC(=O)C3CCN(c4cccnn4)CC3)cc2)CC1` [Example 625, N-{4-[1-(2,2-dimethylpropanoyl)piperidin-4-yl]phenyl}-1-(pyridazin-3-yl)piperidine-4-carboxamide], half-maximal inhibition (IC50) required 1900 nM.

`Cc1ncccc1N1CC(C(=O)Nc2ccc(OC3CCN(C(=O)CC4CCOCC4)CC3)cc2)C1` [Example 4, 1-(2-methylpyridin-3-yl)-N-(4-{[1-(tetrahydro-2H-pyran-4-ylacetyl)piperidin-4-yl]oxy}phenyl)azetidine-3-carboxamide] displayed an IC50 of 112 nM.

The molecule `O=C(Nc1ccc(C2CCN(C(=O)c3cccc(F)c3)CC2)cc1)C1CN(c2cccnn2)C1` [Example 348, N-{4-[1-(3-fluorobenzoyl)piperidin-4-yl]phenyl}-1-(pyridazin-3-yl)azetidine-3-carboxamide] showed an IC50 of 2 nM.

As to `CC(C)(C)c1ccc(C(=O)N2CCC(c3ccc(NC(=O)[C@H]4CCN(c5cccnn5)C4)cc3)CC2)cc1` [Example 708, (3S)-N-{4-[1-(4-tert-butylbenzoyl)piperidin-4-yl]phenyl}-1-(pyridazin-3-yl)pyrrolidine-3-carboxamide], it took 14.2 nM to reach half-maximal inhibition (IC50). On to `COc1ccccc1C(=O)N1CCC(c2ccc(NC(=O)C3CN(c4cccnn4)C3)cc2)CC1` [Example 345, N-{4-[1-(2-methoxybenzoyl)piperidin-4-yl]phenyl}-1-(pyridazin-3-yl)azetidine-3-carboxamide], for which the IC50 turned out to be 1.99 nM.

In turn, `CC(C)(C)CC(=O)N1CCC(c2ccc(NC(=O)C3CN(c4ccnnc4)C3)cc2)CC1` [Example 140, N-{4-[1-(3,3-dimethylbutanoyl)piperidin-4-yl]phenyl}-1-(pyridazin-4-yl)azetidine-3-carboxamide] had an IC50 of 3.54 nM.
